Measured values reported in US20050130134A1, “Means and methods for monitoring non-nucleoside reverse transcriptase inhibitor antiretroviral therapy and guiding therapeutic decisions in the treatment HIV-AIDS” (ViroLogic, Inc., priority 2000, published 2005).
“Also recorded” adds a separate entry of the source.

Tests used:
[1] = system: RTV-302 patient virus (RT K103N, I135M, T200A, P225H); test: Phenotypic susceptibility assay, RTV-302 (patient 97-302); assay type: cell-based, HIV-1
Experimental: (§1) Transfections were performed using a calcium-phosphate precipitation procedure. […] Cell lysates were assayed for luciferase activity (FIG. 3). […] The drug inhibition curves are shown in (FIG. 3).
This patient had been treated with d4T, indinavir and DMP-266 for a period of approximately 10 months. […] An IC50 was determined for each drug tested. Susceptibility of the patient virus to each drug was examined and compared to known patterns of susceptibility. […] Patient sample 97-302 was examined further for genotypic changes associated with the observed pattern of susceptibility.

[2] = system: RTV-300 patient virus (RT K32N, M184V, Y188L); test: Phenotypic susceptibility assay, RTV-300 (patient 97-300); assay type: cell-based, HIV-1
Experimental: as §1
This patient had been previously treated with d4T and 3TC (NRTIs), indinavir (a PR1) and efavirenz (an NNRTI).

[3] = system: RTV-209 patient virus (RT E138A, Y188L); test: Phenotypic susceptibility assay, RTV-209 (patient 97-209); assay type: cell-based, HIV-1
Experimental: as §1
This patient had been previously treated with AZT, ddI, d4T and 3TC (NRTIs), indinavir (a PRIs) and adefovir. […].

[4] = system: HIV reverse transcriptase K103N + Y181C double mutant; conditions: K103N + Y181C double mutant compared to single mutants, FIG. 5
Experimental: (§2) Resistance tests were carried out with resistance test vectors using two host cell types. Resistance test vector viral particles were produced by a first host cell (the resistance test vector host cell) that was prepared by transfecting a packaging host cell with the resistance test vector and the packaging expression vector. The resistance test vector viral particles were then used to infect a second host cell (the target host cell) in which the expression of the indicator gene is measured.
(§3) The resistance test vectors containing a functional luciferase gene cassette were constructed and host cells were transfected with the resistance test vector DNA. The resistant test vectors contained patient-derived reverse transcriptase and protease sequences that were either susceptible or resistant to the antiretroviral agents, such as nucleoside reverse transcriptase inhibitors, non-nucleoside reverse transcriptase inhibitors and protease inhibitors. The resistance test vector viral particles produced by transfecting the resistance test vector DNA into host cells, either in the presence or absence of protease inhibitors, were used to infect target host cells grown either in the absence of NRTI or NNRTI or in the presence of increasing concentrations of the drug. The amount of luciferase activity produced in infected target host cells in the presence of drug was compared to the amount of luciferase produced in infected target host cells in the absence of drug. Drug resistance was measured as the amount of drug required to inhibit by 50% the luciferase activity detected in the absence of drug (inhibitory concentration 50%, IC50). The IC50 values were determined by plotting percent drug inhibition vs. log10 drug concentration.
(§4) Host cells were seeded in 10-cm-diameter dishes and were transfected several days after plating with resistance test vector plasmid DNA and the envelope expression vector. Transfections were performed using a calcium-phosphate precipitation procedure. The cell culture media containing the DNA precipitate was replaced with fresh medium, from one to 24 hours, after transfection. Cell culture media containing resistance test vector viral particles was harvested one to four days after transfection and was passed through a […] filter before being stored at −80° C. HIV capsid protein (p24) levels in the harvested cell culture media were determined by an EIA method as described by the manufacturer (SIAC; Frederick, Md.). Before infection, target cells (293 and 293/T) were plated in cell culture media. Control infections were performed using cell culture media from mock transfections (no DNA) or transfections containing the resistance test vector plasmid DNA without the envelope expression plasmid. One to three or more days after infection the media was removed and cell lysis buffer (Promega) was added to each well. […] The inhibitory effect of the drug was determined using the following equation: % luciferase inhibition=1-(RLUluc[drug]÷RLUluc)×100 where RLUluc [drug] is the relative light unit of luciferase activity in infected cells in the presence of drug and RLUluc is the Relative Light Unit of luciferase activity in infected cells in the absence of drug. IC50 values were obtained from the sigmoidal curves that were generated from the data by plotting the percent inhibition of luciferase activity vs. the log10 drug concentration.

[5] = system: RTV-652 patient virus (RT V108I); conditions: >1 decrease, <1 increased susceptibility
Experimental: as §2, §3, §4

[6] = system: RTV-675 patient virus (RT A98G); conditions: >1 decreased susceptibility
Experimental: as §2, §3, §4

[7] = system: patient 302 virus clones K103N, P225H versus K103N, I135M, R211K; conditions: patient 302 clones with versus without P225H, FIG. 8C
Experimental: as §2, §3, §4

[8] = system: patient 487 virus (RT M184V, K103N); conditions: FIG. 4
Experimental: as §2, §3, §4

[9] = system: RTV-955 patient virus (RT K101E, K103N, Y181C, G190A mixtures); test: Phenotypic susceptibility assay, RTV-955 (patient 98-955); assay type: cell-based, HIV-1
Experimental: as §1
This patient had been previously treated with nelfinavir (a PR1).

[10] = system: RTV-1058 clone 10 (RT L100I, K103N, Y188L); test: Phenotypic susceptibility assay, RTV-1058 clone 10; assay type: cell-based, HIV-1
Experimental: as §1

[11] = system: HIV-1 reverse transcriptase P236L (P236L-RTV); test: Phenotypic susceptibility assay, site directed mutant P236L-RTV; assay type: cell-based; conditions: P236L alone versus wild type reference RTV
Experimental: as §1
Resistance test vectors were constructed containing the P236L mutation alone and in combination with other known drug resistance mutations (K103N, Y181C) that are known to modulate the susceptibility of HIV-1 to NNRTIs. […] The P236L mutation was also introduced into a RTV containing mutations at K103N, Y181C or both (K103N+Y181C).

[12] = system: HIV-1 reverse transcriptase K101E (K101E-RTV); test: Phenotypic susceptibility assay, site directed mutant K101E-RTV; assay type: cell-based
Experimental: as §2, §3
as §4, with “concentration. […]” for “concentration.”

[13] = system: HIV reverse transcriptase mutation at codon 230 alone or in combination with codon 181; test: Phenotypic susceptibility assay, mutation at codon 230 alone or with codon 181; assay type: cell-based
[14] = biological target: RT with P236L substitution (Human immunodeficiency virus type 1 group M subtype B, UniProt P04585, P823L); conditions: cited from earlier work; for previously reported effect of the P236L mutation: Dueweke et al. 1993
[15] = K101E-RTV, >1 loss of susceptibility
[16] = second pair of values printed in the K101E-RTV sentence of b280

SMILES | change in susceptibility [1] | decrease in susceptibility [2] | decrease in susceptibility [3] | resistance profile [4] | fold change in susceptibility [5] [fold] | fold change in susceptibility [6] [fold] | effect of P225H on resistance associated with K103N [7] | resistance profile [8] | decrease in susceptibility [9] [fold] | loss of susceptibility [10] | change in susceptibility [11] | fold change in susceptibility compared to wild type control RTV [12, 15] [fold] | change in susceptibility [13] | previously reported effect of the P236L mutation [14] | fold change in susceptibility compared to wild type control RTV [12, 16] [fold] | reduction of IC50 ([14]; P236L substitution) [fold]
CC(C)Nc1cccnc1N1CCN(C(=O)c2cc3cc(NS(C)(=O)=O)ccc3[nH]2)CC1 [delavirdine] | modest decrease; also recorded: reduced susceptibility | 25 fold | 75 fold | further increase in resistance | 0.97 | 2.1 | reduces the amount delavirdine resistance | increased resistance | 4 | greater than 250 fold | less susceptible; also recorded: significant reduction | 5 | significant decrease | delavirdine resistance | – | –
O=C1Nc2ccc(Cl)cc2[C@@](C#CC2CC2)(C(F)(F)F)O1 [efavirenz] | – | – | – | – | – | – | – | – | – | – | no effect | 5 | – | – | 30 | –
Cc1ccnc2c1NC(=O)c1cccnc1N2C1CC1 [nevirapine] | significant decrease; also recorded: reduced susceptibility | greater than 800 fold | greater than 800 fold | further increase in resistance | 5 | 6 | does not alter the amount of nevirapine resistance | increased resistance | 530 | greater than 800 fold | no significant change; also recorded: little or no reduction | 12 | significant decrease | nevirapine hypersensitivity | 55 | 7 to 10
